In patent US20250339517A1, “LIPID N[…]” (priority 2022, published 2025):

Tested on: F9A6-CD4 T cell hybridoma overlaid on M. tuberculosis-infected macrophages
Test: Ex vivo MTB Ag85B antigen presentation to CD4 T cells (IL-2 ELISA)
Assay type: cell-based, human
Conditions: concurrent activation; decrease for MO-TDM compared to TDM and MO
Description: Briefly, M. tuberculosis-infected MΦs were washed after a 4-hour infection and overlaid with the F9A6-CD4 T cell hybridoma which recognizes an Ag85B epitope in the context of human HLA-DR1. IL-2 secreted from hybridoma T cells or other cytokines secreted from M. tuberculosis-infected MΦs were determined using a sandwich ELISA kit (Biolegend).
By inhibiting the phagosome lysosome fusion in macrophages, TDM not only protects the M. tuberculosis bacilli from intracellular killing but also reduces the priming of T cells due to reduced processing of Mycobacterial antigens in lysosomal compartments. Since increased killing of intracellular MTB in macrophages was observed when they were stimulated with a cubosomal MO-TDM (1 mol %) preparation, it indicated a possible increase in lysosmal processing of its antigens. […] An in vitro antigen presentation assay using a CD4 hybridoma T cell that recognizes a specific epitope of Ag85B was adopted to determine the priming of T cells by macrophages that were stimulated with MO, TDM and MO-TDM (1 mol %). Secreted levels of IL-2 by hybridoma T cells upon overlay to M. tuberculosis infected macrophages with and without stimulation with MO, TDM and MO-TDM (1 mol %) were monitored in a time dependent manner (FIG. 9).

trehalose 6,6′ dimycolate [TDM]
antigen presentation to T cells (secreted IL-2 levels), change from day 3 to day 5 post infection: decreased sharply
